According to patent US12172990B2 (Constellation Pharmaceuticals, Inc., priority 2018, dated 2024):

What was measured:
full length human TREX1 = full length human TREX1 (Homo sapiens (Human), UniProt Q9NSU2); assay: TREX1 Biochemical Assay (fluorescence assay measuring degradation of dsDNA substrate); settings: 150 pM TREX1, 60 nM dsDNA substrate, 25 minutes at room temperature
Summary of the method: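 His-Tev-tagged full-length human TREX1 expressed in E. coli, 150 pM final, with 60 nM TEX615/quencher-labelled 9-mer dsDNA in Tris pH 7.4, NaCl, DTT, BSA, Tween-20, MgCl2 and 1.0% DMSO; 25 min at room temperature, EDTA-quenched. Fluorescence 615 nm (excitation 570 nm); 10-point IC50 by four-parameter fit against pre-quenched and no-inhibitor controls.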

[1] = target: human TREX2 (residues M44-A279) (Homo sapiens (Human), UniProt Q9BQ50); assay: TREX2 Biochemical Assay (fluorescence assay measuring degradation of dsDNA substrate); settings: 2.5 nM TREX2, 60 nM dsDNA substrate, 25 minutes at room temperature
Summary of the method: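 Final conditions: 2.5 nM His-Tev-tagged TREX2 (E. coli-expressed), 60 nM fluorophore/quencher-labelled dsDNA, 50 mM Tris pH 7.4, 150 mM NaCl, 100 mM MgCl2, 1% DMSO; 10-point compound dose-response. Incubated 25 min at room temperature, then EDTA-quenched; fluorescence read at ex 570/em 615 nm. IC50 from four-parameter fit against pre-quenched and no-inhibitor controls.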

Chain of full length human TREX1 (Q9NSU2 whole entry): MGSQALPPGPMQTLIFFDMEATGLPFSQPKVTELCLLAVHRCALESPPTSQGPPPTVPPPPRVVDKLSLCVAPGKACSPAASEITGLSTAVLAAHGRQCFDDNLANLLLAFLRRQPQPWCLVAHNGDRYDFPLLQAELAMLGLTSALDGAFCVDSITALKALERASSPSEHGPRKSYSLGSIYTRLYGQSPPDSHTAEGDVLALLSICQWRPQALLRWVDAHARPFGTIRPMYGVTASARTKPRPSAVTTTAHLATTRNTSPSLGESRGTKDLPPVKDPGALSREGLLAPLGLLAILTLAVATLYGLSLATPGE
Chain of human TREX2 (residues M44-A279) (Q9BQ50 whole entry, the tested form may be a part): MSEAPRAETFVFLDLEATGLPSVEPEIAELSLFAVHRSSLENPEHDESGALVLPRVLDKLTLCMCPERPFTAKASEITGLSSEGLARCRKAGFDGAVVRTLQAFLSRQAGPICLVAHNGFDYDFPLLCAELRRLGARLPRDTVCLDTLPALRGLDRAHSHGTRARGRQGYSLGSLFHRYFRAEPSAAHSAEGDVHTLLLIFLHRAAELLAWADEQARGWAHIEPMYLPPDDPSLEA

Row | Structure (SMILES) | IC50 (full length human TREX1) | IC50 [1]
1 | Cn1c(N2CCC[C@H]2c2ccccc2)nc(C(=O)Nc2cnoc2)c(O)c1=O [Example 112, (S)-5-hydroxy-N-(isoxazol-4-yl)-1-methyl-6-oxo-2-(2-phenylpyrrolidin-1-yl)-1,6-dihydropyrimidine-4-carboxamide] | < 0.1 µM | 1 to 10 µM
2 | Cn1c(-c2ccccc2Br)nc(C(=O)Nc2cnoc2)c(O)c1=O [Example 9, 2-(2-bromophenyl)-5-hydroxy-N-(isoxazol-4-yl)-1-methyl-6-oxo-1,6-dihydropyrimidine-4-carboxamide] | 0.1 to 1 µM | 10 to 100 µM
3 | CC(=O)N1CCCC(c2nc(C(=O)Nc3cnoc3)c(O)c(=O)n2C)C1 (stereo not shown) [Example 64, 2-(1-acetylpiperidin-3-yl)-5-hydroxy-N-(isoxazol-4-yl)-1-methyl-6-oxo-1,6-dihydropyrimidine-4-carboxamide] | 0.1 to 1 µM | 10 to 100 µM
4 | Cn1c(-c2ccncc2)nc(C(=O)Nc2cnoc2)c(O)c1=O [Example 21, 5-hydroxy-N-(isoxazol-4-yl)-1-methyl-6-oxo-2-(pyridin-4-yl)-1,6-dihydropyrimidine-4-carboxamide] | 1 to 10 µM | > 100 µM
5 | Cn1c([C@H]2CCCN(C(=O)Cc3ccc(F)c(F)c3)C2)nc(C(=O)Nc2cnoc2)c(O)c1=O [Example 91, (S)-2-(1-(2-(3,4-difluorophenyl)acetyl)piperidin-3-yl)-5-hydroxy-N-(isoxazol-4-yl)-1-methyl-6-oxo-1,6-dihydropyrimidine-4-carboxamide] | 0.1 to 1 µM | 10 to 100 µM
6 | Cn1c(C2CCCN(S(=O)(=O)c3ccccc3)C2)nc(C(=O)Nc2cnoc2)c(O)c1=O (stereo not shown) [Example 57, 5-hydroxy-N-(isoxazol-4-yl)-1-methyl-6-oxo-2-(1-(phenylsulfonyl)piperidin-3-yl)-1,6-dihydropyrimidine-4-carboxamide] | 0.1 to 1 µM | 10 to 100 µM
7 | Cn1c(C2CCCCN2C(=O)OC(C)(C)C)nc(C(=O)Nc2cnoc2)c(O)c1=O (stereo not shown) [Example 14, tert-butyl 2-(5-hydroxy-4-(isoxazol-4-ylcarbamoyl)-1-methyl-6-oxo-1,6-dihydropyrimidin-2-yl)piperidine-1-carboxylate] | 0.1 to 1 µM | 1 to 10 µM
8 | Cc1cc(C(=O)NCCO)cc(-c2nc(C(=O)Nc3cnoc3)c(O)c(=O)n2C)c1 [Example 38, 5-hydroxy-2-(3-((2-hydroxyethyl)carbamoyl)-5-methylphenyl)-N-(isoxazol-4-yl)-1-methyl-6-oxo-1,6-dihydropyrimidine-4-carboxamide] | 0.1 to 1 µM | 10 to 100 µM
9 | Cn1c(C2CCCN(C(=O)c3ccccn3)C2)nc(C(=O)Nc2cnoc2)c(O)c1=O (stereo not shown) [Example 40, 5-hydroxy-N-(isoxazol-4-yl)-1-methyl-6-oxo-2-(1-picolinoylpiperidin-3-yl)-1,6-dihydropyrimidine-4-carboxamide] | 0.1 to 1 µM | 1 to 10 µM
10 | Cn1c([C@H]2CCCN(C(=O)c3ccc(Cl)c(Cl)c3)C2)nc(C(=O)Nc2cnoc2)c(O)c1=O [Example 97, (S)-2-(1-(3,4-dichlorobenzoyl)piperidin-3-yl)-5-hydroxy-N-(isoxazol-4-yl)-1-methyl-6-oxo-1,6-dihydropyrimidine-4-carboxamide] | < 0.1 µM | < 1 µM
11 | C[C@@H]1CC[C@H](c2nc(C(=O)Nc3cnoc3)c(O)c(=O)n2C)CN1C(=O)c1ccc(Cl)c(Cl)c1 [Example 83, 2-((3S,6R)-1-(3,4-dichlorobenzoyl)-6-methylpiperidin-3-yl)-5-hydroxy-N-(isoxazol-4-yl)-1-methyl-6-oxo-1,6-dihydropyrimidine-4-carboxamide] | 1 to 10 µM | 10 to 100 µM
12 | Cn1c(C2CCCN(Cc3ccccc3)C2)nc(C(=O)Nc2cnoc2)c(O)c1=O (stereo not shown) [Example 39, 2-(1-benzylpiperidin-3-yl)-5-hydroxy-N-(isoxazol-4-yl)-1-methyl-6-oxo-1,6-dihydropyrimidine-4-carboxamide] | 1 to 10 µM | 10 to 100 µM
13 | Cn1c(-c2ccccc2)nc(C(=O)Nc2cnoc2)c(O)c1=O [Example 8, 5-hydroxy-N-(isoxazol-4-yl)-1-methyl-6-oxo-2-phenyl-1,6-dihydropyrimidine-4-carboxamide] | 0.1 to 1 µM | 10 to 100 µM
14 | COC(=O)c1cc(C)cc(-c2nc(C(=O)Nc3cnoc3)c(O)c(=O)n2C)c1 [Example 53, methyl 3-(5-hydroxy-4-(isoxazol-4-ylcarbamoyl)-1-methyl-6-oxo-1,6-dihydropyrimidin-2-yl)-5-methylbenzoate] | 0.1 to 1 µM | 1 to 10 µM
15 | Cn1c(Cc2ccccn2)nc(C(=O)Nc2cnoc2)c(O)c1=O [Example 26, 5-hydroxy-N-(isoxazol-4-yl)-1-methyl-6-oxo-2-(pyridin-2-ylmethyl)-1,6-dihydropyrimidine-4-carboxamide] | 1 to 10 µM | 10 to 100 µM
16 | Cn1c(C(NC(=O)OCc2ccccc2)c2ccc(Br)cc2)nc(C(=O)Nc2cnoc2)c(O)c1=O (stereo not shown) [Example 24, benzyl ((4-bromophenyl)(5-hydroxy-4-(isoxazol-4-ylcarbamoyl)-1-methyl-6-oxo-1,6-dihydropyrimidin-2-yl)methyl)carbamate] | 0.1 to 1 µM | > 100 µM
17 | CC(C)(C)OC(=O)N1CCCC(c2nc(C(=O)Nc3cnoc3)c(O)c(=O)[nH]2)C1 (stereo not shown) [Example 16, tert-butyl 3-(5-hydroxy-4-(isoxazol-4-ylcarbamoyl)-6-oxo-1,6-dihydropyrimidin-2-yl)piperidine-1-carboxylate] | 0.1 to 1 µM | 10 to 100 µM
18 | Cn1c(C2CCN(C(=O)OC(C)(C)C)CC2)nc(C(=O)Nc2cnoc2)c(O)c1=O [Example 12, tert-butyl 4-(5-hydroxy-4-(isoxazol-4-ylcarbamoyl)-1-methyl-6-oxo-1,6-dihydropyrimidin-2-yl)piperidine-1-carboxylate] | 1 to 10 µM | 10 to 100 µM
19 | Cn1c(-c2ccccc2N[C@H]2C[C@@H](O)C2)nc(C(=O)Nc2cnoc2)c(O)c1=O [Example 76, 5-hydroxy-2-(2-(((1s,3s)-3-hydroxycyclobutyl)amino)phenyl)-N-(isoxazol-4-yl)-1-methyl-6-oxo-1,6-dihydropyrimidine-4-carboxamide] | 0.1 to 1 µM | 10 to 100 µM
20 | Cn1c(-c2cc(Br)ccc2OCCO)nc(C(=O)Nc2cnoc2)c(O)c1=O [Example 70, 2-(5-bromo-2-(2-hydroxyethoxy)phenyl)-5-hydroxy-N-(isoxazol-4-yl)-1-methyl-6-oxo-1,6-dihydropyrimidine-4-carboxamide] | < 0.1 µM | 1 to 10 µM
21 | Cn1c(N2CCC[C@@H]2c2ccccc2Cl)nc(C(=O)Nc2cnoc2)c(O)c1=O [Example 124, (R)-2-(2-(2-chlorophenyl)pyrrolidin-1-yl)-5-hydroxy-N-(isoxazol-4-yl)-1-methyl-6-oxo-1,6-dihydropyrimidine-4-carboxamide] | < 0.1 µM | 1 to 10 µM
22 | Cn1c(-c2cnn(Cc3ccccc3)c2)nc(C(=O)Nc2cnoc2)c(O)c1=O [Example 42, 2-(1-benzyl-1H-pyrazol-4-yl)-5-hydroxy-N-(isoxazol-4-yl)-1-methyl-6-oxo-1,6-dihydropyrimidine-4-carboxamide] | 0.1 to 1 µM | 10 to 100 µM
23 | Cc1cc(C(=O)N(C)C)cc(-c2nc(C(=O)Nc3cnoc3)c(O)c(=O)n2C)c1 [Example 36, 2-(3-(dimethylcarbamoyl)-5-methylphenyl)-5-hydroxy-N-(isoxazol-4-yl)-1-methyl-6-oxo-1,6-dihydropyrimidine-4-carboxamide] | 0.1 to 1 µM | 10 to 100 µM
